In PubChem BioAssay (NCI):
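Cells were grown in 96-well plates and exposed to each compound for 48 hours at five concentrations; endpoints were interpolated linearly between bracketing concentrations, or set to the highest concentration if not reached. Here, GI50 denotes the concentration required for 50% inhibition of growth. At the TGI there is no net growth.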

How the values were obtained:
Test in all cases: growth of human tumour cells (NCI), 48 h
[1] = test system: 786-0 renal
[2] = test system: A498 renal
[3] = test system: A549 NSCLC
[4] = test system: ACHN renal
[5] = test system: BT-549 breast
[6] = test system: CAKI-1 renal
[7] = test system: CCRF-CEM leukemia
[8] = test system: COLO 205 colon
[9] = test system: DU-145 prostate
[10] = test system: EKVX NSCLC
[11] = test system: HCC-2998 colon
[12] = test system: HCT-116 colon
[13] = test system: HCT-15 colon
[14] = test system: HL-60(TB) leukemia
[15] = test system: HOP-62 NSCLC
[16] = test system: HOP-92 NSCLC
[17] = test system: HS 578T breast
[18] = test system: HT29 colon
[19] = test system: IGROV1 ovarian
[20] = test system: K-562 leukemia
[21] = test system: KM12 colon
[22] = test system: LOX IMVI melanoma
[23] = test system: M14 melanoma
[24] = test system: MALME-3M melanoma
[25] = test system: MCF7 breast
[26] = test system: MDA-MB-231 breast
[27] = test system: MDA-MB-435
[28] = test system: MOLT-4 leukemia
[29] = test system: NCI-H226 lung
[30] = test system: NCI-H23 lung
[31] = test system: NCI-H460 lung
[32] = test system: NCI-H522 lung
[33] = test system: NCI/ADR-RES ovarian
[34] = test system: OVCAR-3 ovarian
[35] = test system: OVCAR-4 ovarian
[36] = test system: OVCAR-5 ovarian
[37] = test system: OVCAR-8 ovarian
[38] = test system: PC-3 prostate
[39] = test system: RPMI-8226 leukemia
[40] = test system: RXF 393 renal
[41] = test system: SF-268 CNS
[42] = test system: SF-295 CNS
[43] = test system: SF-539 CNS
[44] = test system: SK-MEL-2 melanoma
[45] = test system: SK-MEL-28 melanoma
[46] = test system: SK-MEL-5 melanoma
[47] = test system: SK-OV-3 ovarian
[48] = test system: SN12C renal
[49] = test system: SNB-19 CNS
[50] = test system: SNB-75 CNS
[51] = test system: SR leukemia
[52] = test system: SW-620 colon
[53] = test system: T-47D breast
[54] = test system: TK-10 renal
[55] = test system: U251 CNS
[56] = test system: UACC-257 melanoma
[57] = test system: UACC-62 melanoma
[58] = test system: UO-31 renal

For `C=C1C(=O)OC2CC(C)C(C(CC(C)=O)OC(C)=O)=CCC12` (centres undefined), the TGI [1] was 9.65 µM, the TGI [2] was 39.4 µM and the TGI [3] was > 76.2 µM. The TGI [4] was 22.4 µM, the TGI [5] was 15.2 µM and the TGI [6] was 8.05 µM. The TGI [7] was > 35 µM, the TGI [8] was 21.2 µM and the TGI [9] was 30.1 µM. It also gave a TGI [10] of 26.6 µM, a TGI [11] of 24.1 µM and a TGI [12] of 4.21 µM. The TGI [13] was 7.96 µM, the TGI [14] was > 29.3 µM and the TGI [15] was 46.9 µM. For the same compound, the TGI [16] was 21.2 µM, the TGI [17] was > 100 µM and the TGI [18] was 22 µM. It also gave a TGI [19] of 29 µM, a TGI [20] of 17.9 µM and a TGI [21] of 37.2 µM. It also gave a TGI [22] of 18.8 µM, a TGI [23] of 36.9 µM and a TGI [24] of 3.97 µM. For the same compound, the TGI [25] was 18.2 µM, the TGI [26] was 27.2 µM and the TGI [27] was 33 µM. The TGI [28] was 20.4 µM, the TGI [29] was > 66.4 µM and the TGI [30] was 34.3 µM. For the same compound, the TGI [31] was 41.9 µM, the TGI [32] was 3.27 µM and the TGI [33] was > 45 µM. For the same compound, the TGI [34] was 20.3 µM, the TGI [35] was 34.2 µM and the TGI [36] was 31.6 µM. For the same compound, the TGI [37] was > 51.8 µM, the TGI [38] was 41.8 µM and the TGI [39] was 21.6 µM. The TGI [40] was 32.2 µM, the TGI [41] was 74.5 µM and the TGI [42] was 62 µM. For the same compound, the TGI [43] was 69.3 µM, the TGI [44] was 40.8 µM and the TGI [45] was 24.1 µM. The TGI [46] was 32 µM, the TGI [47] was > 100 µM and the TGI [48] was 15 µM. For the same compound, the TGI [49] was > 74.9 µM, the TGI [50] was 54.2 µM and the TGI [51] was 15.5 µM. For the same compound, the TGI [52] was 10.6 µM, the TGI [53] was 42 µM and the TGI [54] was 31.1 µM. It also gave a TGI [55] of 29.6 µM, a TGI [56] of 37.4 µM and a TGI [57] of 25.4 µM. The TGI [58] was 29.7 µM.

For `COc1cc(-c2oc(=O)ccc2C#Cc2ccccn2)cc(OC)c1OC`, the GI50 [1] was 4.47 µM, the TGI [1] was > 100 µM and the GI50 [2] was 3.81 µM. The TGI [2] was > 48.3 µM, the GI50 [3] was 4.15 µM and the TGI [3] was > 100 µM. The GI50 [4] was 11.7 µM, the TGI [4] was > 100 µM and the GI50 [5] was 4.42 µM. The TGI [5] was > 100 µM, the GI50 [6] was 0.563 µM and the TGI [6] was 3.73 µM. The GI50 [7] was 2.14 µM, the TGI [7] was > 30 µM and the GI50 [8] was 3.72 µM. For the same compound, the TGI [8] was > 30.9 µM, the GI50 [9] was 3.48 µM and the TGI [9] was > 29.5 µM. The GI50 [10] was 8.07 µM, the TGI [10] was > 100 µM and the GI50 [11] was 0.236 µM. For the same compound, the TGI [11] was 4.6 µM, the GI50 [12] was 2.75 µM and the TGI [12] was > 100 µM. For the same compound, the GI50 [13] was 1.54 µM, the TGI [13] was > 100 µM and the GI50 [14] was 2.14 µM. The TGI [14] was 6.4 µM, the GI50 [15] was 2.42 µM and the TGI [15] was > 100 µM. The GI50 [16] was 2.23 µM, the TGI [16] was 25.4 µM and the GI50 [17] was 2.98 µM. The TGI [17] was > 24 µM, the GI50 [18] was 0.607 µM and the TGI [18] was > 21 µM. The GI50 [20] was 0.646 µM, the TGI [20] was > 100 µM and the GI50 [21] was 0.884 µM. For the same compound, the TGI [21] was > 100 µM, the GI50 [22] was 4.38 µM and the TGI [22] was > 100 µM. The GI50 [23] was 2.74 µM, the TGI [23] was > 32.4 µM and the GI50 [24] was 14.9 µM. For the same compound, the TGI [24] was > 100 µM, the GI50 [25] was 0.798 µM and the TGI [25] was > 100 µM. For the same compound, the GI50 [26] was 3.57 µM, the TGI [26] was > 72.4 µM and the GI50 [27] was 0.171 µM. For the same compound, the TGI [27] was 0.932 µM, the GI50 [28] was 4.14 µM and the TGI [28] was > 100 µM. For the same compound, the GI50 [29] was 7.76 µM, the TGI [29] was > 100 µM and the GI50 [30] was 2.4 µM. For the same compound, the TGI [30] was > 29.4 µM, the GI50 [31] was 2.6 µM and the TGI [31] was > 54.2 µM. For the same compound, the GI50 [33] was 1.09 µM, the GI50 [34] was 0.733 µM and the TGI [34] was 2.76 µM. For the same compound, the GI50 [35] was 9.65 µM, the TGI [35] was > 100 µM and the GI50 [36] was 10.5 µM. The TGI [36] was > 100 µM, the GI50 [37] was 3.89 µM and the TGI [37] was > 100 µM. For the same compound, the GI50 [38] was 2.21 µM, the TGI [38] was > 100 µM and the GI50 [39] was 1.8 µM. It also gave a TGI [39] of 9.59 µM, a GI50 [40] of 0.273 µM and a TGI [40] of 2.09 µM. The GI50 [41] was 5.56 µM, the TGI [41] was > 100 µM and the GI50 [42] was 0.224 µM. It also gave a TGI [42] of 2.01 µM, a GI50 [43] of 3.03 µM and a TGI [43] of 13.8 µM. The GI50 [44] was 4.15 µM, the TGI [44] was > 100 µM and the GI50 [45] was 3.34 µM. The TGI [45] was > 100 µM, the GI50 [46] was 2.09 µM and the TGI [46] was 11.2 µM. It also gave a GI50 [47] of 3.43 µM, a TGI [47] of 97.7 µM and a GI50 [48] of 5.5 µM. For the same compound, the TGI [48] was > 100 µM, the GI50 [49] was 3.8 µM and the TGI [49] was > 76.1 µM. The GI50 [50] was 1.93 µM, the TGI [50] was > 29.8 µM and the GI50 [51] was 0.257 µM. For the same compound, the TGI [51] was > 39.9 µM, the GI50 [52] was 2.28 µM and the TGI [52] was > 100 µM. The GI50 [53] was 3.46 µM, the TGI [53] was > 41.8 µM and the GI50 [54] was 4.98 µM. The TGI [54] was > 100 µM, the GI50 [55] was 3.51 µM and the TGI [55] was > 86 µM. For the same compound, the GI50 [56] was 4.12 µM, the TGI [56] was > 61.8 µM and the GI50 [57] was 1.82 µM. The TGI [57] was > 20.1 µM, the GI50 [58] was 3.22 µM and the TGI [58] was > 100 µM.
